Data reported in publication PMC12238850, “Molecular determinants for recognition of serotonylated chromatin” (Nucleic Acids Research, 2025).
Where two headings read alike, the source gives them in different places.

Biological target: T1, Taf3-PHD P881E–W894F (Mus musculus, UniProt Q5HZG4, P881E/W894F)
T1 construct: Mus musculus Taf3-PHD domain (residues 857–924); GST (N, cleaved yes); made in house; host or cells: E. coli BL21(DE3), M9 minimal medium (13C/15N)
T1 sequence (Q5HZG4 857-924 P881E/W894F): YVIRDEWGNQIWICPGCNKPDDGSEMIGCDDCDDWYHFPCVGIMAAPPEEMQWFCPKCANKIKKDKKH
Test: NMR titration line shape analysis (TITAN), double mutant Taf3-PHD
Format: binding
Procedure: The ^13C- and ^15N-labelled Taf3-PHD NMR samples were purified as described above, with minor differences. A single colony of freshly transformed BL21(DE3) E. coli was grown in a synthetic M9 minimal medium (6.0 g/l Na2HPO4·2H2O, 3.0 g/l KH2PO4, 0.5 g/l NaCl, 25 mg/l MgSO4, 290 μg/l CaCl2, 1 μg/l FeSO4·7H2O, 270 μg/l ZnCl2, and 5 mg/l thiamine) containing 2.0 g/l ^13C-glucose as the only carbon source and 0.5 g/l ^15NH4Cl as the sole nitrogen source. Protein expression, lysis, and loading to Glutathione Sepharose™ column were performed as described above. The GST-tag was removed through on-column thrombin digestion by loading excess thrombin (SERVA) in wash buffer followed by overnight digestion at 4°C. The cleaved PHD moiety with a […] N-terminal extension (Gly–Ser–His–Met–Ala–Met–Ala) remaining from the thrombin cleavage site was collected from the flow-through and further purified in a Mono Q™ 10/100 GL as before and subsequently loaded to a Superdex-75 HiLoad 16/600 gel filtration column in NMR buffer (20 mM KPi, pH 7.0, 150 mM KCl, 10 μM ZnCl2) (Supplementary Fig. S1).
All data were recorded at 298 K on a Bruker Avance III HD 900 MHz spectrometer equipped with a cryoprobe, unless noted otherwise. Sample for assignment verification contained 0.3 mM ^13C- and ^15N-labelled PHD finger of Taf3 (residues 857–924) in NMR buffer (20 mM KPi, pH 7.0, 150 mM KCl, 10 μM ZnCl2, 0.01% NaN3, 10% D2O) in a 5-mm NMR tube. Samples for peptide interaction studies contained 0.19 mM ^13C- and ^15N-labelled PHD in NMR buffer in 3-mm NMR tubes. Lyophilized peptides were dissolved in NMR buffer including 1 mM sodium 3-(trimethylsilyl)tetradeuteriopropanionate (TSP) into 20 mM stock solutions. Upon dilution to 1 mM, all peptide solutions were at pH 7.0 in NMR buffer. Peptide concentrations were determined by comparing the integral of the Thr methyl signal (from T3, T6, and T11, total nine protons) to that of TSP using a quantitative 1D experiment (recycle delay 60 s) recorded at a Bruker Avance III 600 MHz spectrometer. Saturated complexes with H3K4me1/H3K4me2/H3K4me3 peptides with and without H3Q5ser were made by adding peptide to a 0.7 mM final concentration (3.6 equiv.). […] Additional samples were prepared using 30%, 50%, 80%, and 160% equiv. of peptide. All spectra were recorded and processed using Bruker Topspin and analysed using NMR-FAM Sparky and Poky.
For the H3K4me2 complexes, the resonance of G879 was excluded due to overlap and that of K875 was included. Spectra were processed using NMRPipe using exponential line broadening of 10/15 Hz in the direct/indirect dimension of the free induction decay before Fourier transform. Data were fit against a 1:1 binding model that also optimizes the ligand concentration to compensate for concentration errors. […]

Structure (SMILES)	koff (NMR line shape fit (TITAN), P881E–W894F mutant, average ± standard error from bootstrap, read-out: koff) [s⁻¹]	koff (NMR line shape fit (TITAN), P881E–W894F mutant, read-out: koff 95% confidence limits) [s⁻¹]	koff [s⁻¹]	koff (read-out: koff 95% confidence limits) [s⁻¹]
C[C@H](N)C(=O)N[C@@H](CCCNC(=N)N)C(=O)N[C@H](C(=O)N[C@@H](CCCC[N+](C)(C)C)C(=O)N[C@@H](CCC(N)=O)C(=O)N[C@H](C(=O)N[C@@H](C)C(=O)N[C@@H](CCCNC(=N)N)C(=O)N[C@@H](CCCCN)C(=O)N[C@@H](CO)C(=O)N[C@H](C(=O)NCC(N)=O)[C@@H](C)O)[C@@H](C)O)[C@@H](C)O [H3K4me3]	29.6 ± 0.9	22 to 40		
C[C@H](N)C(=O)N[C@@H](CCCNC(=N)N)C(=O)N[C@H](C(=O)N[C@@H](CCCC[N+](C)(C)C)C(=O)N[C@@H](CCC(=O)NCCc1c[nH]c2ccc(O)cc12)C(=O)N[C@H](C(=O)N[C@@H](C)C(=O)N[C@@H](CCCNC(=N)N)C(=O)N[C@@H](CCCCN)C(=O)N[C@@H](CO)C(=O)N[C@H](C(=O)NCC(N)=O)[C@@H](C)O)[C@@H](C)O)[C@@H](C)O [H3K4me3Q5ser]			24.2 ± 0.9	18 to 33
